The text below walks through data of patent US9604987B2, “Synthesis of autophagy inducing compound and the uses thereof” (Hong Kong Baptist University, priority 2012, dated 2017).

For assay [1], the system named is α-syn/synphilin-1 aggresomes in N2a cells. Kind of assay: α-syn/synphilin-1 aggresome formation in N2a cells. It is filed as cell-based, mouse. The conditions noted are these: 25 μM, 48 hours. As to the method: α-syn and synphilin-1 are co-expressed in N2a cells to mimic aggresome formation and are treated with 25 μM Cory B or 5 mM 3-MA for 48 hours. Cells are fixed in 4% paraformaldehyde and analyzed under a fluorescence microscope. […] The inhibition of Cory B clearance of various forms of α-syn and α-syn/synphilin-1 aggresomes in the presence of 3-MA further validates that such clearance is via the autophagy pathway. Data are presented as the mean±SEM from 3 independent experiments (***p<0.001, one-way ANOVA for multiple comparison and Tukey's test as post hoc test).

In assay [2] the test system is WT and A53T α-syn in differentiated DA neurons. Description: α-syn degradation in human dopaminergic neurons differentiated from embryonic stem cells. The class given is cell-based. The source says: Differentiation of stem cells into dopaminergic neurons. The human embryonic stem (ES) cells were differentiated into dopaminergic neurons according to a previously described protocol with minor changes. Initially, ES cells were digested with dispase (17105041, Invitrogen,) and broken into smaller clusters to form the embryonic bodies. The next day, undifferentiated floating ES cell aggregates were transferred to a new flask. The cells were maintained in DMEM/F12 medium (11320082, Invitrogen) with half medium changed every day for 3 days. On the fourth day, ES cell aggregates were collected by centrifuge and re-suspended in NSM (DMEM/F12 containing 1% N2 supplement (17502048, Invitrogen), 1 μg/ml Heparin (H3149, Sigma), 200 μM NEAA (11140050, Invitrogen) and 2 mM L-glutamine (25030081, Invitrogen)) supplemented with 10% FBS. Embryonic stem cells were transferred to a new flask and medium was changed every other day. Three days later, cell aggregates were transferred to 6-well-plates. The next day, the FBS containing media were replaced with NSM containing 20 ng/ml FGF8 (PHG0184, Invitrogen) and 100 ng/ml SHH (PMC2095, Invitrogen), media were changed every other day. Five days later, the colonies in the dish were detached by pipetting gently with a P1000 pipette. […]

Assay [3] deals with N2a cells. Kind of assay: Tandem fluorescent mRFP-GFP-LC3 (Tf-LC3) autophagosome maturation in N2a cells. The class given is cell-based, mouse. The conditions noted are these: 25 μM, 24 hours. An excerpt: Therefore, red-only puncta indicates the normal maturation of the autolysosomes. In contrast, co-localization of GFP and RFP puncta indicates impaired fusion between autophagosomes and lysosomes or disruption of lysosome function. Here, this system is utilized and establishes a pattern of GFP and mRFP fluorescence changes in N2a cells after Cory B treatment. Cells are fixed in 4% paraformaldehyde and analyzed under a confocal microscope. […] However, the number of GFP puncta is much lower as compared to mRFP puncta, indicating efficient autophagosome-lysosome maturation and degradation. In cells treated with CQ, there is similar accumulation of GFP and mRFP puncta due to lysosome inhibition. In cells treated with both CQ and Cory B, the number of GFP and mRFP puncta are even more than in the CQ-alone group, but GFP and mRFP puncta numbers are very similar (FIG. 2E, F). The observations further confirm that enhancement of GFP- and RFP-LC3-II puncta expression by Cory B are achieved via autophagy induction flux in neuronal cells rather than inhibiting lysosomal degradation of LC3-II. Results were presented as means±SEM of one representative experiment from three independent repeats (**p<0.01 compare the difference between GFP and RFP puncta in each group, two-way ANOVA for multiple comparison and Bonferroni test as post hoc test).

In assay [4] the test system is Beclin-1. Description: Beclin-1 expression and Beclin 1 siRNA depletion in N2a cells. It is filed as cell-based, mouse. The protocol:
FIG. 7: Western blot analysis of expression level of phosphorylated mTOR (p-mTOR) or its substrate P70S6K (p-P70S6K) in N2a cells with treatment of 25 μM Cory B or 0.2 μM rapamycin for 6 hours (FIG. 7A); western blot analysis of Beclin 1 expression in N2a cells with non-target or Beclin 1-specific siRNA treatments followed by Cory B (FIG. 7B)
To elucidate the molecular mechanism of Cory B action, the classic autophagy controlling pathway, the mTOR pathway is first examined. […] Several other pathways reported to be involved in the activation of autophagy, including AKT, AMPK, MEK/ERK, JNK, and ER stress pathways, and calcium signaling pathway (data not shown), are also tested.

As for `CC[C@@H]1CN2CC[C@]3(C(=O)Nc4ccccc43)C2C[C@@H]1C(=COC)C(=O)OC` (stereo partly drawn) [Cory B, Corynoxine B], the “number of α-syn/synphilin-1 aggresomes” value in assay [1] was “dramatically decreases the number of α-syn/synphilin-1 aggresomes”. Besides, in assay [2], the “WT and A53T α-syn levels” value was “dramatically decreases both WT and A53T α-syn levels”. For the same compound, in assay [3], the “GFP and mRFP puncta formation (Tf-LC3)” value is “induces massive GFP and mRFP puncta formation”; the “number of GFP puncta compared to mRFP puncta” value is “much lower”. Besides, in assay [4], the “expression of Beclin-1” value is “does not affect the expression of Beclin-1”. Besides, the “Cory B-induced autophagy under Beclin-1 siRNA treatment” value in assay [4] (Beclin 1-specific siRNA) is on record as “completely blocks”.
